# Patent publication US20160367623A1, “AGONISTS OF GUANYLATE CYCLASE USEFUL FOR THE TREATMENT OF GASTROINTESTINAL DISORDERS, INFLAMMATION, CANCER AND OTHER DISORDERS” (priority 2015, published 2016)
# Bridge positions count the residues as written; N and C are the ends. Ends that are not written are not given here.
# How the values were obtained:
# [1] = test system: patients with chronic idiopathic constipation (CIC); conditions: in vivo
# [2] = test system: patients with chronic idiopathic constipation (CIC); assay: First phase 3 CIC trial: durable overall CSBM responders (primary endpoint); format: in vivo, human; set-up: Odds Ratio (adjusted), durable overall CSBM responders: reference not given here; conditions: for Non-Responders, % / Durable Overall CSBM Responders, %: ITT; for Durable Overall CSBM Responders, %: MRA; for proportion of durable overall responders: 12-week treatment, intention-to-treat population, placebo 10.2%; for Odds Ratio (adjusted), durable overall CSBM responders / Difference in Proportions (adjusted), responders minus placebo: adjusted for gender; for Odds Ratio (adjusted), durable overall CSBM responders: CMH
# Source text: Both trials include a two-week pre-treatment baseline period, a 12-week treatment period, and a two-week post-treatment period. The phase 3 CIC program was designed to support regulatory submission in the U. S.
# The primary endpoint for both trials is the proportion of durable overall responders (%), which is the current regulatory endpoint required for U.S. approval in CIC. The FDA has defined a durable overall responder as a patient who fulfills both ≧3 complete spontaneous bowel movements (CSBMs) per week plus an increase of ≧1 CSBM from baseline in the same week, for 9 out of the 12 treatment weeks. In addition, the same patient must be an overall responder for at least 3 of the last 4 treatment weeks in order to be considered a durable overall responder.
# Patients were selected using Rome 3 criteria modified for CIC and had (1) fewer than 3 defecations per week, (2) loose stools occurring rarely without laxatives, (3) inadequate criteria for irritable bowel syndrome with constipation (IBS-C), and (4) at least two of the following applied to at least 25% of defecations: (a) straining during evacuation, (b) lumpy or hard stools, (c) sensation of anorectal obstruction or blockage. Rome 3 requires patients to fulfill the criteria for the last 3 months with symptom onset at least 6 months prior to diagnosis.
substance,measurement,setting,value
"Asn^1-Asp^2-Glu^3-Cys^4-Glu^5-Leu^6-Cys^7-Val^8-Asn^9-Val^10-Ala^11-Cys^12-Thr^13-Gly^14-Cys^15-Leu^16 (NDECELCVNVACTGCL; disulfide 4-12, 7-15) [Plecanatide, uroguanylin analogue, guanylate cyclase-C agonist; (C4:C12, C7:C15) bicycle peptide]","serum chemistries, hematology, urinalysis, ECG or vital signs",[1],No clinically relevant abnormalities were observed
same,"Non-Responders, %",[2]; 3 mg (N = 453),79.0%
same,"Durable Overall CSBM Responders, %",[2]; 3 mg (N = 453),21.0%
same,proportion of durable overall responders,[2]; 3.0 mg once-a-day,21.0%
same,"Odds Ratio (adjusted), durable overall CSBM responders",[2]; 3 mg vs placebo,0.429
same,"Difference in Proportions (adjusted), responders minus placebo",[2]; 3 mg,0.107
same,"Non-Responders, %",[2]; 6 mg (N = 441),80.5%
same,"Durable Overall CSBM Responders, %",[2]; 6 mg (N = 441),19.5%
same,proportion of durable overall responders,[2]; 6.0 mg once-a-day,19.5%
same,"Odds Ratio (adjusted), durable overall CSBM responders",[2]; 6 mg vs placebo,0.469
same,"Difference in Proportions (adjusted), responders minus placebo",[2]; 6 mg,0.094
same,"Non-Responders, %",[2]; Active Combined (N = 894),79.8%
same,"Durable Overall CSBM Responders, %",[2]; Active Combined (N = 894),20.2%
